Experimental data from patent US20210085711A1 (Japan Tobacco Inc., priority 2017, published 2021).

Legend:
Type in all cases: in vivo, human
[1] = system: patients with hypermenorrhea and/or patients with hypermenorrhea-associated gynecologic diseases (iron-deficiency anemia patients); assay: Phase II clinical trial of JTT-751: total iron-binding capacity (TIBC)
Description: (§1) This test was a three-stage safety and efficacy clinical trial at multi-facilities. The first stage was a pre-observation period (Day −40 to Day −1), the second stage was an administration period (Day 1 to Day 48) (efficacy and safety evaluation period), and the third stage was a post-observation period (Day 49 to Day 63) (efficacy and safety evaluation period). The safety evaluation and efficacy evaluation were performed by multi-facility collaboration, placebo control, random allocation, double-blind trial, and parallel group comparison test.
(§2) (1) Japanese patients who are 20 or more and less than 65 years old at the time of agreement and can visit an outpatient clinic (2) Patients who have an Hb value (measured using HemoCue® Hb 201 DM analyzer in the institute of clinical practice) of 7.0 g/dL or more and less than 11.0 g/dL on both the observation start date and Week 0, and the difference between the two days is 1.0 g/dL or less (3) Patients with a TIBC of 360 μg/dL or more or a serum ferritin value of less than 12 ng/mL on the observation start date
(§3) The administration period of the trial drug is seven weeks which starts from the next day of the Week 0 visit to the day before the Week 7 visit, provided that the trial drug is not taken on the scheduled Week 3 visit.
(§4) (2) Subsidiary evaluation items 1) Erythrocyte-related examination values and amount of change from Week 0 at each observation date 2) Iron-related test values and amount of change from Week 0 at each observation date 3) Achievement rate of target Hb value (female; 12.0 g/dL or more, male; 13.0 g/dL or more) at each observation date 4) Achievement rate of 1.0 g/dL or more and achievement rate of 2.0 g/dL or more in Hb value improvement from Week 0 at each observation date 5) Average daily change of Hb value from Week 0 to each observation date
(§5) The blood hemoglobin value (Hb), the serum iron level, the serum ferritin value, the total iron-binding capacity (TIBC) and the transferrin saturation rate (TSAT), and the mean corpuscular volume (MCV) were each examined at the observation start date, Week 0, Week 3, Week 7, the end of administration and the consultation at nine weeks after Week 0; the hepcidin concentration (Hepcidin 25) and the serum soluble transferrin receptor concentration (sTfR) were each examined on Week 0, Week 3 and Week 7 and at the end of administration; and the C-terminal FGF23 value (cFGF23) and the intact FGF23 value (iFGF23) were each examined on Week 0 and Week 7 and at the end of administration.

[2] = system: patients with hypermenorrhea and/or patients with hypermenorrhea-associated gynecologic diseases (iron-deficiency anemia patients); assay: Phase II clinical trial of JTT-751: serum iron level
Description: as §1, §2, §3, §4, §5

[3] = system: patients with hypermenorrhea and/or patients with hypermenorrhea-associated gynecologic diseases (iron-deficiency anemia patients); assay: Phase II clinical trial of JTT-751: intact FGF23 value (iFGF23)
Description: as §1, §2, §3, §5

[4] = 250 mg/day, 9 weeks after Week 0
[5] = 250 mg/day, End of administration
[6] = 500 mg/day, 9 weeks after Week 0
[7] = 500 mg/day, End of administration
[8] = 1000 mg/day, 9 weeks after Week 0
[9] = 1000 mg/day, End of administration
[10] = 1500 mg/day, 9 weeks after Week 0
[11] = 1500 mg/day, End of administration
[12] = 250 mg/day, Week 3 (Week 0 not given)
[13] = 500 mg/day, Week 3 (Week 0 not given)
[14] = 1000 mg/day, Week 3 (Week 0 not given)
[15] = 1500 mg/day, Week 3 (Week 0 not given)
[16] = End of administration, JTT-751 250 mg group
[17] = End of administration, JTT-751 500 mg group
[18] = End of administration, JTT-751 1000 mg group
[19] = End of administration, JTT-751 1500 mg group
[20] = Week 0 (baseline), JTT-751 250 mg group
[21] = Week 0 (baseline), JTT-751 500 mg group
[22] = Week 0 (baseline), JTT-751 1000 mg group
[23] = Week 0 (baseline), JTT-751 1500 mg group

With Ferric citrate [JTT-751] the “TIBC, profile from the baseline (value at Week 0), Mean” value (from here on “TIBC, profile from the baseline … Mean”) [1, 4] was -42.8 µg/dL, the “TIBC, profile from the baseline (value at Week 0), Median” value (shortened to “TIBC, profile … Median”) [1, 4] was -39.0 µg/dL and the “TIBC, profile from the baseline … Mean” value [1, 5] was -60.1 µg/dL. The “TIBC, profile … Median” value [1, 5] was -62.0 µg/dL, the “TIBC, profile from the baseline … Mean” value ([1]; 250 mg/day, Week 3) was -28.3 µg/dL and the “TIBC, profile … Median” value ([1]; 250 mg/day, Week 3) was -24.0 µg/dL. The “TIBC, profile from the baseline … Mean” value ([1]; 250 mg/day, Week 7) was -60.1 µg/dL, the “TIBC, profile … Median” value ([1]; 250 mg/day, Week 7) was -62.0 µg/dL and the “TIBC, profile from the baseline … Mean” value [1, 6] was -49.6 µg/dL. For the same substance, the “TIBC, profile … Median” value [1, 6] was -49.0 µg/dL, the “TIBC, profile from the baseline … Mean” value [1, 7] was -61.7 µg/dL and the “TIBC, profile … Median” value [1, 7] was -49.5 µg/dL. The “TIBC, profile from the baseline … Mean” value ([1]; 500 mg/day, Week 3) was -30.9 µg/dL, the “TIBC, profile … Median” value ([1]; 500 mg/day, Week 3) was -28.5 µg/dL and the “TIBC, profile from the baseline … Mean” value ([1]; 500 mg/day, Week 7) was -61.7 µg/dL. The “TIBC, profile … Median” value ([1]; 500 mg/day, Week 7) was -49.5 µg/dL, the “TIBC, profile from the baseline … Mean” value [1, 8] was -68.7 µg/dL and the “TIBC, profile … Median” value [1, 8] was -75.0 µg/dL. The “TIBC, profile from the baseline … Mean” value [1, 9] was -80.4 µg/dL, the “TIBC, profile … Median” value [1, 9] was -70.0 µg/dL and the “TIBC, profile from the baseline … Mean” value ([1]; 1000 mg/day, Week 3) was -54.1 µg/dL. The “TIBC, profile … Median” value ([1]; 1000 mg/day, Week 3) was -54.0 µg/dL, the “TIBC, profile from the baseline … Mean” value ([1]; 1000 mg/day, Week 7) was -80.4 µg/dL and the “TIBC, profile … Median” value ([1]; 1000 mg/day, Week 7) was -70.0 µg/dL. The “TIBC, profile from the baseline … Mean” value [1, 10] was -63.0 µg/dL, the “TIBC, profile … Median” value [1, 10] was -68.5 µg/dL and the “TIBC, profile from the baseline … Mean” value [1, 11] was -79.7 µg/dL. For the same substance, the “TIBC, profile … Median” value [1, 11] was -84.0 µg/dL, the “TIBC, profile from the baseline … Mean” value ([1]; 1500 mg/day, Week 3) was -60.7 µg/dL and the “TIBC, profile … Median” value ([1]; 1500 mg/day, Week 3) was -70.0 µg/dL. The “TIBC, profile from the baseline … Mean” value ([1]; 1500 mg/day, Week 7) was -79.7 µg/dL, the “TIBC, profile … Median” value ([1]; 1500 mg/day, Week 7) was -84.0 µg/dL and the “total iron-binding capacity (TIBC), time-dependent change” value ([1]; Week 0, Week 3 and Week 7) was “decreased along with the continuous administration”. The “Serum iron, Mean” value [2, 4] was 14.3 µg/dL, the “Serum iron, Median” value [2, 4] was 13.0 µg/dL and the “Serum iron, Mean” value [2, 5] was 30.4 µg/dL. For the same substance, the “Serum iron, Median” value [2, 5] was 25.0 µg/dL, the “Serum iron, Mean” value [2, 12] was 19.9 µg/dL and the “Serum iron, Median” value [2, 12] was 18.5 µg/dL. For the same substance, the “Serum iron, Mean” value ([2]; 250 mg/day, Week 7) was 30.4 µg/dL, the “Serum iron, Median” value ([2]; 250 mg/day, Week 7) was 25.0 µg/dL and the “Serum iron, Mean” value [2, 6] was 24.6 µg/dL. For the same substance, the “Serum iron, Median” value [2, 6] was 18.0 µg/dL, the “Serum iron, Mean” value [2, 7] was 40.1 µg/dL and the “Serum iron, Median” value [2, 7] was 42.5 µg/dL. For the same substance, the “Serum iron, Mean” value [2, 13] was 29.6 µg/dL, the “Serum iron, Median” value [2, 13] was 13.5 µg/dL and the “Serum iron, Mean” value ([2]; 500 mg/day, Week 7) was 40.1 µg/dL. The “Serum iron, Median” value ([2]; 500 mg/day, Week 7) was 42.5 µg/dL, the “serum iron level on Week 3” value ([2]; 1000 mg administration group and 1500 mg administration group, Week 3) was “improved to a normal value” and the “Serum iron, Mean” value [2, 8] was 40.3 µg/dL. The “Serum iron, Median” value [2, 8] was 38.0 µg/dL, the “Serum iron, Mean” value [2, 9] was 48.3 µg/dL and the “Serum iron, Median” value [2, 9] was 52.0 µg/dL. For the same substance, the “Serum iron, Mean” value [2, 14] was 55.5 µg/dL, the “Serum iron, Median” value [2, 14] was 36.0 µg/dL and the “Serum iron, Mean” value ([2]; 1000 mg/day, Week 7) was 48.3 µg/dL. For the same substance, the “Serum iron, Median” value ([2]; 1000 mg/day, Week 7) was 52.0 µg/dL, the “Serum iron, Mean” value [2, 10] was 38.1 µg/dL and the “Serum iron, Median” value [2, 10] was 34.0 µg/dL. For the same substance, the “Serum iron, Mean” value [2, 11] was 54.4 µg/dL, the “Serum iron, Median” value [2, 11] was 46.0 µg/dL and the “Serum iron, Mean” value [2, 15] was 53.1 µg/dL. For the same substance, the “Serum iron, Median” value [2, 15] was 27.0 µg/dL, the “Serum iron, Mean” value ([2]; 1500 mg/day, Week 7) was 54.4 µg/dL and the “Serum iron, Median” value ([2]; 1500 mg/day, Week 7) was 46.0 µg/dL. The “serum iron level, increased to a normal value” ([2]; continuous administration, Week 0, Week 3 and Week 7) was “about 50 μg/dL”, the “intact FGF23 value (iFGF23), time-dependent change” value ([3]; 1000 mg administration group and 1500 mg administration group) was “decreased along with the continuous administration of the JTT-751 tablet and improved” and the “iFGF23, Mean” value [3, 16] was 34.74 pg/mL. The “iFGF23, Median” value [3, 16] was 33.65 pg/mL, the “iFGF23, Mean” value [3, 17] was 41.06 pg/mL and the “iFGF23, Median” value [3, 17] was 38.20 pg/mL. The “iFGF23, Mean” value [3, 18] was 33.62 pg/mL, the “iFGF23, Median” value [3, 18] was 30.40 pg/mL and the “iFGF23, Mean” value [3, 19] was 36.30 pg/mL. The “iFGF23, Median” value [3, 19] was 35.00 pg/mL, the “iFGF23, Mean” value [3, 20] was 36.73 pg/mL and the “iFGF23, Median” value [3, 20] was 33.90 pg/mL. For the same substance, the “iFGF23, Mean” value [3, 21] was 43.53 pg/mL, the “iFGF23, Median” value [3, 21] was 42.05 pg/mL and the “iFGF23, Mean” value [3, 22] was 41.93 pg/mL. The “iFGF23, Median” value [3, 22] was 42.50 pg/mL, the “iFGF23, Mean” value [3, 23] was 46.09 pg/mL and the “iFGF23, Median” value [3, 23] was 44.00 pg/mL. The “iFGF23, Mean” value ([3]; Week 7, JTT-751 250 mg group) was 34.74 pg/mL, the “iFGF23, Median” value ([3]; Week 7, JTT-751 250 mg group) was 33.65 pg/mL and the “iFGF23, Mean” value ([3]; Week 7, JTT-751 500 mg group) was 41.06 pg/mL. The “iFGF23, Median” value ([3]; Week 7, JTT-751 500 mg group) was 38.20 pg/mL, the “iFGF23, Mean” value ([3]; Week 7, JTT-751 1000 mg group) was 33.62 pg/mL and the “iFGF23, Median” value ([3]; Week 7, JTT-751 1000 mg group) was 30.40 pg/mL. For the same substance, the “iFGF23, Mean” value ([3]; Week 7, JTT-751 1500 mg group) was 36.30 pg/mL and the “iFGF23, Median” value ([3]; Week 7, JTT-751 1500 mg group) was 35.00 pg/mL.
